In patent publication US10138260B2, “Compounds of phosphinanes and azaphosphinanes, a process for their preparation and pharmaceutical compositions containing them” (LES LABORATOIRES SERVIER, priority 2016, dated 2018):

Molecular target: T1, TAFIa (Homo sapiens, UniProt Q96IY4)
T1 sequence (Q96IY4 115-423): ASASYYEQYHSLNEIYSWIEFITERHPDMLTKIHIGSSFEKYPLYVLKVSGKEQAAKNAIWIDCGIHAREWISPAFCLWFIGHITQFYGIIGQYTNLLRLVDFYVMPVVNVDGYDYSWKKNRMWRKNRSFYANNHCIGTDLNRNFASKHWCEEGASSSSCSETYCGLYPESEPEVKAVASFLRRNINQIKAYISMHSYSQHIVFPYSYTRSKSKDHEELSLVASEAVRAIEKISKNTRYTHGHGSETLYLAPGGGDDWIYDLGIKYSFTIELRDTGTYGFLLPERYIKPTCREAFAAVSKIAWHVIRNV
Assay: Inhibition of TAFIa (hippuryl-Arg test)
Type: biochemical
Details: TAFIa 2 nM, hippuryl-arginine 5 mM, 45 minutes, relative to control containing the carrier; for inhibition at 0.01 µM: compound at 10 nM; for inhibition at 0.02 µM: compound at 20 nM
Experimental: Human TAFI (4 nM) is incubated with human thrombin (10 nM) and human thrombomodulin (5 nM) in the presence of calcium (10 mM). After incubation for 20 minutes, the activation reaction is stopped by addition of PPACK (1 μM final), an irreversible thrombin inhibitor.
The reactions take place in Hepes buffer (25 mM Hepes, 137 mM NaCl, 3.5 mM KCl)+0.1% bovine albumin, pH 7.4 at 28° C. and with stirring.
The test compound is added to the solution of TAFIa (2 nM) and incubated for 45 minutes in the presence of hippuryl-arginine (5 mM). The reaction is stopped by addition of hydrochloric acid (1M) neutralised subsequently with sodium hydroxide (1M), and then the mixture is buffered with disodium hydroxyphosphate (1M pH 7.4). […] The reaction mixture is stirred (vortex) and then centrifuged. The supernatant is transferred to a 96-well microplate, and the absorbance is measured using a spectrophotometer at 405 nm (Spectramax plus, Molecular Devices).
The OD value of a well containing the reagents without TAFI is subtracted from all the OD values measured. The percentage inhibition of TAFIa at a given concentration of the test compound is determined by means of the following formula: % inhibition=100−[(OD compound×100)/OD carrier]
The compounds are evaluated at 10 nM and 20 nM under the experimental conditions described above and the results are expressed as the percentage inhibition relative to a control containing the carrier in the absence of compound.

Row | inhibition at 0.01 µM [%] | inhibition at 0.02 µM [%] | Compound
1 | 79 | 91 | NCCCC[C@@]1(C(=O)O)CN(Cc2ccccc2-c2cccc3cnccc23)CCP1(=O)O [Example 214, (3S)-3-(4-AMINOBUTYL)-4-HYDROXY-1-[(2-ISOQUINOLIN-5-YLPHENYL)-METHYL]-4-OXO-1,4-AZAPHOSPHINANE-3-CARBOXYLIC ACID]
2 | 66 | 83 | NCCCC[C@@]1(C(=O)O)CN(Cc2ccc(O)cc2-c2ccccc2)CCP1(=O)O [Example 191, (3S)-3-(4-AMINOBUTYL)-4-HYDROXY-1-[(4-HYDROXY-2-PHENYLPHENYL)-METHYL]-4-OXO-1,4-AZAPHOSPHINANE-3-CARBOXYLIC ACID]
3 | 58 | 71 | NCCCCC1(C(=O)O)CN(Cc2ccccc2-c2cccc3ccccc23)CCP1(=O)O (centres unmarked) [Example 109, 3-(4-AMINOBUTYL)-4-HYDROXY-1-[(2-NAPHTHALEN-1-YLPHENYL)METHYL]-4-OXO-1,4-AZAPHOSPHINANE-3-CARBOXYLIC ACID]
4 | 88 | 97 | Cc1ncc(-c2ccccc2CN2CCP(=O)(O)[C@](CCCCN)(C(=O)O)C2)n1C [Example 250, (3S)-3-(4-AMINOBUTYL)-1-[[2-(2,3-DIMETHYLIMIDAZOL-4-YL)PHENYL]-METHYL]-4-HYDROXY-4-OXO-1,4-AZAPHOSPHINANE-3-CARBOXYLIC ACID]
5 | 69 | 85 | COc1cccc(-c2cc(F)ccc2CN2CCP(=O)(O)[C@](CCCCN)(C(=O)O)C2)c1 [Example 185, (3S)-3-(4-AMINOBUTYL)-1-[[4-FLUORO-2-(3-METHOXYPHENYL)PHENYL]-METHYL]-4-HYDROXY-4-OXO-1,4-AZAPHOSPHINANE-3-CARBOXYLIC ACID]
6 | 75 | 88 | COc1ccc(-c2cc(O)ccc2CN2CCP(=O)(O)[C@](CCCCN)(C(=O)O)C2)cn1 [Example 242, (3S)-3-(4-AMINOBUTYL)-4-HYDROXY-1-[[4-HYDROXY-2-(6-METHOXYPYRIDIN-3-YL)PHENYL]METHYL]-4-OXO-1,4-AZAPHOSPHINANE-3-CARBOXYLIC ACID]
7 | 66 | 87 | NCCCCC1(C(=O)O)CN(Cc2ccccc2-c2ccc3c(c2)OCO3)CCP1(=O)O (centres unmarked) [Example 164, 3-(4-AMINOBUTYL)-1-[[2-(1,3-BENZODIOXOL-5-YL)PHENYL]METHYL]-4-HYDROXY-4-OXO-1,4-AZAPHOSPHINANE-3-CARBOXYLIC ACID]
8 | 87 | 95 | COc1ccc(-c2ccccc2CN2CCP(=O)(O)[C@](CCCCN)(C(=O)O)C2)cc1OC [Example 248, (3S)-3-(4-AMINOBUTYL)-1-[[2-(3,4-DIMETHOXYPHENYL)PHENYL]METHYL]-4-HYDROXY-4-OXO-1,4-AZAPHOSPHINANE-3-CARBOXYLIC ACID]
9 | 44 | 66 | NCCCCC1(C(=O)O)CN(Cc2ccsc2-c2ccccc2)CCP1(=O)O (centres unmarked) [Example 105, 3-(4-AMINOBUTYL)-4-HYDROXY-4-OXO-1-[(2-PHENYLTHIOPHEN-3-YL)METHYL]-1,4-AZAPHOSPHINANE-3-CARBOXYLIC ACID]
10 | 35 | 46 | CS(=O)(=O)c1ccccc1-c1ccccc1CN1CCP(=O)(O)[C@](CCCCN)(C(=O)O)C1 [Example 208, (3S)-3-(4-AMINOBUTYL)-4-HYDROXY-1-[[2-(2-METHYLSULPHONYLPHENYL)-PHENYL]METHYL]-4-OXO-1,4-AZAPHOSPHINANE-3-CARBOXYLIC ACID]
11 | 64 | 80 | NCCCC[C@@]1(C(=O)O)CN(Cc2ccccc2-c2cccc(Cl)c2)CCP1(=O)O [Example 194, (3S)-3-(4-AMINOBUTYL)-1-[[2-(3-CHLOROPHENYL)PHENYL]METHYL]-4-HYDROXY-4-OXO-1,4-AZAPHOSPHINANE-3-CARBOXYLIC ACID]
12 | 61 | 67 | NCCCCC1(C(=O)O)CN(Cc2ccccc2-c2cnc3ccccn23)CCP1(=O)O (centres unmarked) [Example 167, 3-(4-AMINOBUTYL)-4-HYDROXY-1-[(2-IMIDAZO[1,2-A]PYRIDIN-3-YLPHENYL)-METHYL]-4-OXO-1,4-AZAPHOSPHINANE-3-CARBOXYLIC ACID]
13 | 86 | 93 | NCCCC[C@@]1(C(=O)O)CN(Cc2ccc(O)cc2-c2cnc3ccccn23)CCP1(=O)O [Example 224, (3S)-3-(4-AMINOBUTYL)-4-HYDROXY-1-[4-HYDROXY-2-(IMIDAZO[1,2-A]-PYRIDIN-3-YL)BENZYL]-4-OXO-1,4-AZAPHOSPHINANE-3-CARBOXYLIC ACID]
14 | 73 | 85 | NCCCC[C@@]1(C(=O)O)CN(Cc2ccc(F)cc2-c2cc[nH]c(=O)c2)CCP1(=O)O [Example 222, (3S)-3-(4-AMINOBUTYL)-1-[[4-FLUORO-2-(2-OXO-1H-PYRIDIN-4-YL)PHENYL]-METHYL]-4-HYDROXY-4-OXO-1,4-AZAPHOSPHINANE-3-CARBOXYLIC ACID]
15 | 83 | 92 | NCCCC[C@@]1(C(=O)O)CN(Cc2ccc(F)cc2-c2cccs2)CCP1(=O)O [Example 213, (3S)-3-(4-AMINOBUTYL)-1-[(4-FLUORO-2-THIOPHEN-2-YLPHENYL)METHYL]-4-HYDROXY-4-OXO-1,4-AZAPHOSPHINANE-3-CARBOXYLIC ACID]
16 | 76 | 87 | NCCCC[C@@]1(C(=O)O)CN(Cc2ccccc2-c2ccc3ccccc3c2)CCP1(=O)O [Example 209, (3S)-3-(4-AMINOBUTYL)-4-HYDROXY-1-[(2-NAPHTHALEN-2-YLPHENYL)-METHYL]-4-OXO-1,4-AZAPHOSPHINANE-3-CARBOXYLIC ACID]
17 | 28 | 46 | CC(C)(C)c1ccccc1CN1CCP(=O)(O)[C@](CCCCN)(C(=O)O)C1 [Example 200, (3S)-3-(4-AMINOBUTYL)-1-[(2-TERT-BUTYLPHENYL)METHYL]-4-HYDROXY-4-OXO-1,4-AZAPHOSPHINANE-3-CARBOXYLIC ACID]
18 | 53 | 66 | NCCCCC1(C(=O)O)CN(Cc2ccccc2-c2ccc3ccccc3c2)CCP1(=O)O (centres unmarked) [Example 50, 3-(4-AMINOBUTYL)-4-HYDROXY-1-[(2-NAPHTHALEN-2-YLPHENYL)METHYL]-4-OXO-1,4-AZAPHOSPHINANE-3-CARBOXYLIC ACID]
19 | 75 | 89 | COc1cc(-c2ccccc2CN2CCP(=O)(O)[C@](CCCCN)(C(=O)O)C2)ccn1 [Example 203, (3S)-3-(4-AMINOBUTYL)-4-HYDROXY-1-[[2-(2-METHOXYPYRIDIN-4-YL)PHENYL]METHYL]-4-OXO-1,4-AZAPHOSPHINANE-3-CARBOXYLIC ACID]
20 | 88 | 95 | NCCCC[C@@]1(C(=O)O)CN(Cc2ccc(F)cc2-c2cccnc2)CCP1(=O)O [Example 190, (3S)-3-(4-AMINOBUTYL)-1-[(4-FLUORO-2-PYRIDIN-3-YLPHENYL)METHYL]-4-HYDROXY-4-OXO-1,4-AZAPHOSPHINANE-3-CARBOXYLIC ACID]
21 | 45 | 54 | NCCCCC1(C(=O)O)CN(Cc2ccccc2-c2cc(Cl)ccc2Cl)CCP1(=O)O (centres unmarked) [Example 48, 3-(4-AMINOBUTYL)-1-[[2-(2,5-DICHLOROPHENYL)PHENYL]METHYL]-4-HYDROXY-4-OXO-1,4-AZAPHOSPHINANE-3-CARBOXYLIC ACID]
22 | 66 | 93 | NCCCCC1(C(=O)O)CN(Cc2ccccc2-c2ccc(=O)[nH]c2)CCP1(=O)O (centres unmarked) [Example 166, 3-(4-AMINOBUTYL)-4-HYDROXY-4-OXO-1-[[2-(6-OXO-1H-PYRIDIN-3-YL)PHENYL]METHYL]-1,4-AZAPHOSPHINANE-3-CARBOXYLIC ACID]
23 | 92 | 98 | Cc1ncc(-c2cc(F)ccc2CN2CCP(=O)(O)[C@](CCCCN)(C(=O)O)C2)n1C [Example 219, (3S)-3-(4-AMINOBUTYL)-1-[2-(1,2-DIMETHYL-1H-IMIDAZOL-5-YL)-4-FLUOROBENZYL]-4-HYDROXY-4-OXO-1,4-AZAPHOSPHINANE-3-CARBOXYLIC ACID]
24 | 81 | 91 | Cn1nccc1-c1cc(F)ccc1CN1CCP(=O)(O)[C@](CCCCN)(C(=O)O)C1 [Example 236, (3S)-3-(4-AMINOBUTYL)-1-[[4-FLUORO-2-(2-METHYLPYRAZOL-3-YL)PHENYL]-METHYL]-4-HYDROXY-4-OXO-1,4-AZAPHOSPHINANE-3-CARBOXYLIC ACID]
25 | 71 | 85 | COc1cccc(-c2ccccc2CN2CCP(=O)(O)[C@](CCCCN)(C(=O)O)C2)c1OC [Example 207, (3S)-3-(4-AMINOBUTYL)-1-[[2-(2,3-DIMETHOXYPHENYL)PHENYL]METHYL]-4-HYDROXY-4-OXO-1,4-AZAPHOSPHINANE-3-CARBOXYLIC ACID]
